Assay results published in ChEMBL document CHEMBL4385641 (Bioorg Med Chem, 2019).

Tests used:
[1] = Cmax in C57BL6 mouse plasma at […], po by LC-MS/MS analysis; assay type: ADME, organism-based; parameters: dose 2.5 mg/kg, route oral
[2] = Half life in C57BL6 mouse plasma at […], po by LC-MS/MS analysis; assay type: ADME, organism-based
[3] = Intrinsic clearance in human liver microsomes at 1 uM incubated for up to 120 mins by mass mass spectrometric method; assay type: ADME, Microsome; details: microsomes, 2 h, 1 µM
Cannabinoid receptor 1 [4] = molecular target: T1, Cannabinoid receptor 1 (Homo sapiens, UniProt P21554); assay: Inverse agonist activity at human CB1 receptor expressed in CHOK1 cells co-expressing Galphaq16 assessed as apparent equilibrium constant after 90 secs by […]-4 AM dye-based FLIPR assay; assay type: cell-based
[5] = Lipophilicity, log D of compound; assay type: physicochemical; details: octanol/water
Cannabinoid receptor 1 [6] = molecular target: T1, Cannabinoid receptor 1; assay: Displacement of [3H]-CP55940 from human CB1 receptor expressed in CHO cell membranes
[7] = Half life in human liver microsomes at 1 uM by mass mass spectrometric method; assay type: ADME, Microsome; details: microsomes, 1 µM
[8] = Drug uptake in C57BL6 mouse brain at […], po by LC-MS/MS analysis; assay type: ADME, organism-based; details: in vivo
[9] = Ratio of Cmax in brain to plasma in C57BL6 mouse at […], po by LC-MS/MS analysis; assay type: ADME, organism-based
Homo sapiens = organism: Homo sapiens; assay: Selectivity ratio of Ki for displacement of [3H]-CP55940 from human CB2 receptor expressed in CHO cell membranes to Ki for displacement of [3H]-CP55940 from human CB1 receptor expressed in CHO cell membranes
[10] = Permeability across apical to basolateral side in MDCK-MDR1 cells at 10 uM incubated for 1 hr by mass spectrometric method; assay type: ADME, cell-based, Canis lupus familiaris; details: dog, mdck-mdr1, 1 h
Cannabinoid receptor 2 = Cannabinoid receptor 2 (Homo sapiens, UniProt P34972); assay: Displacement of [3H]-CP55940 from human CB2 receptor expressed in CHO cell membranes
[11] = Cmax in C57BL6 mouse plasma at 0.3 mg/kg, po by LC-MS/MS analysis; assay type: ADME, organism-based; parameters: dose 0.3 mg/kg, route oral
Cannabinoid receptor 1 [12] = molecular target: T1, Cannabinoid receptor 1; assay: Inverse agonist activity at human CB1 receptor expressed in CHOK1 cells co-expressing Galphaq16 assessed as inhibition of calcium mobilization after 90 secs by […]-4 AM dye-based FLIPR assay; assay type: functional, cell-based

Cannabinoid receptor 2, sequence (P34972 whole entry): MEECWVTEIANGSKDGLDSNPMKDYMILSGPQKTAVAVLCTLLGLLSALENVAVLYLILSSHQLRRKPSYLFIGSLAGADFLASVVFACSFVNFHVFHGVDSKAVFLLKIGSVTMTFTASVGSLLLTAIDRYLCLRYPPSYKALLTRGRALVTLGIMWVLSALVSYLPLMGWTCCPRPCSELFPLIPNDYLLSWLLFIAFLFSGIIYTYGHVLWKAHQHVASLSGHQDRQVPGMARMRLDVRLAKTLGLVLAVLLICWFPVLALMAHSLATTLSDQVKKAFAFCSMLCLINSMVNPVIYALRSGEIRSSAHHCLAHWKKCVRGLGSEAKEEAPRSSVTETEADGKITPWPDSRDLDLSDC
T1 sequence (P21554 whole entry): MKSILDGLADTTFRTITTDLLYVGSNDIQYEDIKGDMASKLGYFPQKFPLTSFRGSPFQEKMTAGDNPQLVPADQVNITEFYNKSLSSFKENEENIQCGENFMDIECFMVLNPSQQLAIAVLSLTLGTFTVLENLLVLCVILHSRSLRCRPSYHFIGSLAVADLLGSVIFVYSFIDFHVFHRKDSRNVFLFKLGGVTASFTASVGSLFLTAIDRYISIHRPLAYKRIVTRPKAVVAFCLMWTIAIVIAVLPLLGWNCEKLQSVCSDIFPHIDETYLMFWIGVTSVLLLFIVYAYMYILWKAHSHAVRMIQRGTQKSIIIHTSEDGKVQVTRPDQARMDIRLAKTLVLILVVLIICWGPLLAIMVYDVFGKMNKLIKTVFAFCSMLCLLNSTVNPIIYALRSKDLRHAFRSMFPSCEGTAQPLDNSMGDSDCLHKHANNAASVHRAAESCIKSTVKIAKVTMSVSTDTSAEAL

Compound | Cmax [1] | half-life [2] | CLH [3] | Ke(app) (Cannabinoid receptor 1 [4]) | logD [5] | Ki (Cannabinoid receptor 1 [6]) | t1/2 [7] | Drug uptake [8] | Ratio [9] | Ratio Ki (Homo sapiens) | permeability [10] | Ki (Cannabinoid receptor 2) | Cmax [11] | Ki (Cannabinoid receptor 2; cho) | EC50 (Cannabinoid receptor 1 [12])
N=C(NC1CCN(c2ncnc3c2nc(-c2ccccc2Cl)n3-c2ccc(Cl)cc2)CC1)c1ccc(F)cc1 | 50 ng/mL | 6 h | 8 µL/min/mg | 170 nM | 4.1 | 780 nM | 2.77 h | < 20% | 0.16 | > 7 | 0.2% | – | – | – | –
O=S(=O)(NC1CCCCC1)NC1CCN(c2ncnc3c2nc(-c2ccccc2Cl)n3-c2ccc(Cl)cc2)CC1 | – | – | – | 8 nM | – | 5 nM | – | – | – | 66 | – | 330 nM | 4 ng/mL | – | –
O/N=C(\c1ccc(F)cc1)C1CCN(c2ncnc3c2nc(-c2ccccc2Cl)n3-c2ccc(Cl)cc2)CC1 (stereo in doubt; 21) | – | – | 12 µL/min/mg | – | – | 7 nM | 1.68 h | – | – | – | – | – | – | > 10000 nM | –
O=C(NC1CCN(c2ncnc3c2nc(-c2ccccc2Cl)n3-c2ccc(Cl)cc2)CC1)c1ccccc1F | – | – | – | 0.6 nM | – | 0.98 nM | – | – | – | 6000 | 0.1% | 6000 nM | – | – | 94.8 nM
O=S(=O)(NC1CCN(c2ncnc3c2nc(-c2ccccc2Cl)n3-c2ccc(OC(F)F)nc2)CC1)c1ccc(F)c(F)c1 | 62 ng/mL | 1.6 h | 5 µL/min/mg | 1.6 nM | – | 3 nM | 4.57 h | < 20% | 0.18 | 290 | – | 860 nM | – | – | 132 nM
O=S(=O)(NC1CCN(c2ncnc3c2nc(-c2ccccc2Cl)n3-c2ccc(Cl)cc2)CC1)c1ccccc1F | – | – | – | 0.8 nM | – | 0.38 nM | – | – | – | 22000 | – | 8500 nM | – | – | 287 nM
O=S(=O)(NC1CCN(c2ncnc3c2nc(-c2ccccc2Cl)n3-c2ccc(Cl)cc2)CC1)c1ccc(F)c(F)c1 | 12 ng/mL | 5.3 h | – | 0.5 nM | – | 1.7 nM | – | – | 0.31 | > 5000 | < 0.1% | > 10000 nM | – | – | –
N=C(Nc1ccc(F)cc1)NC1CCN(c2ncnc3c2nc(-c2ccccc2Cl)n3-c2ccc(Cl)cc2)CC1 | – | – | – | 300 nM | 4.6 | – | – | – | – | – | – | – | – | – | –
Clc1ccc(-n2c(-c3ccccc3Cl)nc3c(N4CCC(Nc5ccccn5)CC4)ncnc32)cc1 | 38 ng/mL | 7.4 h | – | 54 nM | – | 2.4 nM | – | – | 0.45 | 1300 | 0.1% | 3100 nM | – | – | –
